Here are results for 15 compounds from US10428066B2, “Imidazo[4,5-C]pyridine and pyrrolo[2,3-C]pyridine derivatives as SSAO inhibitors” (PROXIMAGEN, LLC, priority 2013, dated 2019).

Sequence of purified recombinantly expressed human SSAO (Q16853 29-763): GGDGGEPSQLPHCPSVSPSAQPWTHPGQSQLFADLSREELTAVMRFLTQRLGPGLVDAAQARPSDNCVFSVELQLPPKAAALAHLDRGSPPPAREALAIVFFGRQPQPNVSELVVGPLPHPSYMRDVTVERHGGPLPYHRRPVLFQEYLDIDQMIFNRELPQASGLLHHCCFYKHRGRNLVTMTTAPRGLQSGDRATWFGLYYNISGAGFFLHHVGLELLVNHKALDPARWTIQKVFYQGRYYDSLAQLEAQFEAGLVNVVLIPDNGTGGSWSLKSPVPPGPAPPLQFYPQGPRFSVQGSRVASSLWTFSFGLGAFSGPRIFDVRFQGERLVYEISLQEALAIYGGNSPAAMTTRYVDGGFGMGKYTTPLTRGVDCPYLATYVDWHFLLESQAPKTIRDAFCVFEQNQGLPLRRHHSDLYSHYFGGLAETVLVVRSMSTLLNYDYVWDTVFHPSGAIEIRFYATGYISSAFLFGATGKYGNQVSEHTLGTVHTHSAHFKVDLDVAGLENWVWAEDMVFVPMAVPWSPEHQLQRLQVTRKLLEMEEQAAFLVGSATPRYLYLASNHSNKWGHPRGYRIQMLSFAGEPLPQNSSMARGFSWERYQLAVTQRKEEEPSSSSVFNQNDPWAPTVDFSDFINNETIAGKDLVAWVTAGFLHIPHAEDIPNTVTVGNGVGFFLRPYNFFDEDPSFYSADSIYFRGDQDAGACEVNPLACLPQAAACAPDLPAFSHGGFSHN

One data set has as its target purified recombinantly expressed human SSAO (Homo sapiens (Human), UniProt Q16853). As to the kind of experiment: SSAO enzyme inhibition assay (HRP-coupled hydrogen peroxide detection or 14C-benzaldehyde detection, benzylamine substrate). It is filed as biochemical. The settings on record: human recombinant SSAO, RT. The protocol:
All primary assays were performed at RT. with purified recombinantly expressed human SSAO. Enzyme was prepared essentially as described in Öhman et al. (Protein Expression and Purification 46 (2006) 321-331). In addition, secondary- and selectivity assays were performed using SSAO prepared from various tissues or purified rat recombinant SSAO. The enzyme activity was assayed with benzylamine as substrate by measuring either benzaldehyde production, using ^14C-labeled substrate, or by utilizing the production of hydrogen peroxide in a horseradish peroxidase (HRP) coupled reaction. Briefly, test compounds were dissolved in dimethyl sulfoxide (DMSO) to a concentration of 10 mM. Dose-response measurements were assayed by either creating 1:10 serial dilutions in DMSO to produce a 7 point curve or by making 1:3 serial dilutions in DMSO to produce 11 point curves.
In a horseradish peroxidase (HRP) coupled reaction, hydrogen peroxide oxidation of 10-acetyl-3,7-dihydroxyphenoxazine produced resorufin, which is a highly fluorescent compound (Zhout and Panchuk-Voloshina. Analytical Biochemistry 253 (1997) 169-174; Amplex® Red Hydrogen Peroxide/peroxidase Assay kit, Invitrogen A22188). Enzyme and compounds in 50 mM sodium phosphate, pH 7.4 were set to pre-incubate in flat-bottomed microtiter plates for approximately 15 min before initiating the reaction by addition of a mixture of HRP, benzylamine and Amplex reagent. Benzylamine concentration was fixed at a concentration corresponding to the Michaelis constant, determined using standard procedures. Fluorescence intensity was then measured at several time points during 1-2 h, exciting at 544 nm and reading the emission at 590 nm. For the human SSAO assay final concentrations of the reagents in the assay wells were: SSAO enzyme 1 ug/ml, benzylamine 100 uM, Amplex reagent 20 uM, HRP 0.1 U/mL and varying concentrations of test compound. The inhibition was measured as % decrease of the signal compared to a control without inhibitor (only diluted DMSO). The background signal from a sample containing no SSAO enzyme was subtracted from all data points. Data was fitted to a four parameter logistic model and IC50 values were calculated using the GraphPad Prism 4 or XLfit 4 programs.
SSAO activity was assayed using 14C-labeled benzylamine and analysed by measuring radioactive benzaldehyde. In a white 96-well optiplate (Packard), 20 uL of diluted test compound was pre-incubated at room temperature with 20 uL SSAO enzyme for approximately 15 min with continuous agitation. All dilutions were made with PBS. The reaction was initiated by adding 20 uL of the benzylamine substrate solution containing [7-14C] Benzylamine hydrochloride (CFA589, GE Healthcare). The plate was incubated for 1 h as above after which the reaction was stopped by acidification (10 uL 1M aq HCl). Then 90 uL Micro Scint-E solution (Perkin-Elmer) was added to each well and the plate was continuously mixed for 15 min. Phase separation occurred instantly and activity was read in a Topcount scintillation counter (Perkin-Elmer). In the final reaction well, the human recombinant SSAO concentration was 10 ug/ml. In order to optimize sensitivity, the substrate concentration was decreased as compared to the HRP coupled assay in order to get a higher fraction of radioactive product. In the human SSAO assay, benzylamine concentration was 40 uM (0.2 uCi/mL). Data was analysed as above.
Broadly, the IC50 is the concentration needed to halve the response being measured. In the case of `Cn1ccc(-c2nc3ccncc3n2-c2ccc(F)cc2)cc1=O` [Example 114, 4-[3-(4-Fluorophenyl)-3H-imidazo[4,5-c]pyridin-2-yl]-1-methyl-1,2-dihydropyridin-2-one], the IC50 fell in the range of 200 to 1200 nM. In the case of `O=c1cc(-c2nc3ccncc3n2-c2ccc(Cl)cc2F)ccn1C1CC1` [Example 116, 4-[3-(4-Chloro-2-fluorophenyl)-3H-imidazo[4,5-c]pyridin-2-yl]-1-cyclopropyl-1,2-dihydropyridin-2-one], the IC50 fell in the range of 50 to 200 nM. On the same count and under the same terms, the value for `COCCN(C)c1ncc(-c2nc3ccncc3n2-c2ccc(C)cc2)cn1` [Example 117, N-(2-Methoxyethyl)-N-methyl-5-[3-(4-methylphenyl)-3H-imidazo[4,5-c]pyridin-2-yl]pyrimidin-2-amine] was 200 to 1200 nM; that for `Cc1ccc(-n2c(-c3cnc(NC4CCOCC4)nc3)nc3ccncc32)cc1` [Example 119, 5-[3-(4-Methylphenyl)-3H-imidazo[4,5-c]pyridin-2-yl]-N-(oxan-4-yl)pyrimidin-2-amine; bis(trifluoroacetic acid)] was 50 to 200 nM.

`CN1CCN(C(=O)c2ccc(-c3cc4ccncc4n3-c3ccc(Cl)cc3)cc2)CC1` [Example 125, 1-({4-[1-(4-Chlorophenyl)-1H-pyrrolo[2,3-c]pyridin-2-yl]phenyl}carbonyl)-4-methylpiperazine]: the IC50 is 200 to 1200 nM. Turning to `Cc1ccc(-n2c(-c3cnc(N4CCOCC4)nc3)cc3ccncc32)cc1` [Example 130, 4-{5-[1-(4-Methylphenyl)-1H-pyrrolo[2,3-c]pyridin-2-yl]pyrimidin-2-yl}morpholine], the IC50 was 50 to 200 nM.

Regarding `CCn1ccc(-c2cc3ccncc3n2-c2ccc(Cl)cc2)cc1=O` [Example 144, 4-[1-(4-Chlorophenyl)-1H-pyrrolo[2,3-c]pyridin-2-yl]-1-ethyl-1,2-dihydropyridin-2-one], the IC50 was in the range of 50 to 200 nM. Same read-out and setting: in the case of `O=c1cc(-c2cc3ccncc3n2-c2ccc(Cl)cc2)cn[nH]1` [Example 146, 5-[1-(4-Chlorophenyl)-1H-pyrrolo[2,3-c]pyridin-2-yl]-2,3-dihydropyridazin-3-one] it was 50 to 200 nM; in that of `Clc1ccc(-n2c(-c3cncc(Cl)c3)cc3ccncc32)cc1` [Example 150, 3-Chloro-5-[1-(4-chlorophenyl)-1H-pyrrolo[2,3-c]pyridin-2-yl]pyridine], 50 to 200 nM. Turning to `Clc1ccc(-n2c(-c3ccc(-n4cccn4)nc3)cc3ccncc32)cc1` [Example 151, 5-[1-(4-Chlorophenyl)-1H-pyrrolo[2,3-c]pyridin-2-yl]-2-(1H-pyrazol-1-yl)pyridine; bis(trifluoroacetic acid)], the IC50 was in the range of 50 to 200 nM.

The target of the next data set is human ether a go-go related gene (hERG) K+ channel (Homo sapiens (Human), UniProt Q12809). The data set can be described thus: hERG assay, IonWorks patch clamp electrophysiology. It is filed as cell-based. As to conditions: Chinese Hamster Lung cell line stably expressing hERG, maximum assay concentration 11 uM. The protocol: Compounds of the invention were tested for inhibition of the human ether a go-go related gene (hERG) K^+ channel using IonWorks patch clamp electrophysiology. 8 Point concentration-response curves were generated on two occasions using 3-fold serial dilutions from the maximum assay concentration (11 uM). Electrophysiological recordings were made from a Chinese Hamster Lung cell line stably expressing the full length hERG channel. Single cell ion currents were measured in the perforated patch clamp configuration (100 ug/mL amphoterocin) at room temperature using an IonWorks Quattro instrument. The internal solution contained 140 mM KCl, 1 mM MgCl2, 1 mM EGTA and 20 mM HEPES and was buffered to pH 7.3. The external solution contained 138 mM NaCl, 2.7 mM KCl, 0.9 mM CaCl2, 0.5 mM MgCl2, 8 mM Na2HPO4 and 1.5 mM KH2PO4, and was buffered to pH 7.3. […] This sequence was repeated 5 times at a frequency of 0.25 Hz. Currents were measured from the tail step at the 5th pulse, and referenced to the holding current. Compounds were incubated for 6-7 min prior to a second measurement of the hERG signal using an identical pulse train. A minimum of 17 cells were required for each plC50 curve fit. A control compound (quinidine) was used (see Table 20 below).
Sequence of human ether a go-go related gene (hERG) K+ channel (Q12809 whole entry): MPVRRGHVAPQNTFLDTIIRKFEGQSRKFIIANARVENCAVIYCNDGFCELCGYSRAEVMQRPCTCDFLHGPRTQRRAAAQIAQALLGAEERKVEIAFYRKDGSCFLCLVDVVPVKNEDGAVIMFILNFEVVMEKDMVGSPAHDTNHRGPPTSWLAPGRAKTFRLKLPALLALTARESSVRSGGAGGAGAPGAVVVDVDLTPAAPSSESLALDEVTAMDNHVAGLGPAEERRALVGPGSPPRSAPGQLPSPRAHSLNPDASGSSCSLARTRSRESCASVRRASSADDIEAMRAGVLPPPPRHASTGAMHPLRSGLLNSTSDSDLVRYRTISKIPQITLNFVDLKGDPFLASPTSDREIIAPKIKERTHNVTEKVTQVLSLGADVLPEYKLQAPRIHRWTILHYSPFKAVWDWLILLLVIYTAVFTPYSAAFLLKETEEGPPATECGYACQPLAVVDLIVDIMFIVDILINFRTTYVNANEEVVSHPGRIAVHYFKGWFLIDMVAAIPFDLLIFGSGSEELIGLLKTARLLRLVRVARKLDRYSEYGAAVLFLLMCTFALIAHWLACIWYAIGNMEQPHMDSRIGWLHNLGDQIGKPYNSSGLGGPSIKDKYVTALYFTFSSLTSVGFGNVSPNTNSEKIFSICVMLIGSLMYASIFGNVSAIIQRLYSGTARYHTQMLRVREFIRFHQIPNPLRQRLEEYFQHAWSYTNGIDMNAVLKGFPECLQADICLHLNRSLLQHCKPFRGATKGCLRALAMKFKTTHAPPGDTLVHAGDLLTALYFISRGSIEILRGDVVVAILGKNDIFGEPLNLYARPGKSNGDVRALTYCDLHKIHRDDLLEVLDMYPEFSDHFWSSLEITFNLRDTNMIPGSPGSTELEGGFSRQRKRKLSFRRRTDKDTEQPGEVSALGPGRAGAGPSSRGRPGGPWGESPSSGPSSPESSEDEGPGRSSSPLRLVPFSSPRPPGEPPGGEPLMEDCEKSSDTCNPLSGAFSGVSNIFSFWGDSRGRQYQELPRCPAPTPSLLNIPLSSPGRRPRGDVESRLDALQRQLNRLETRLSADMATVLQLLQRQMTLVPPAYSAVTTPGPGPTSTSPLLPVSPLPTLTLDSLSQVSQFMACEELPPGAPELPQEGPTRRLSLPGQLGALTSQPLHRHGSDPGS
On the technique in general: The hERG channel carries a current that helps repolarise heart muscle cells.
With `Clc1ccc(-n2c(-c3ccc(N4CCOCC4)nn3)nc3ccncc32)cc1` [Example 4, 4-{6-[3-(4-Chlorophenyl)-3H-imidazo[4,5-c]pyridin-2-yl]pyridazin-3-yl}morpholine], the concentration for half-maximal inhibition (IC50) is 1000 to 10000 nM.

`Clc1ccc(-n2c(-c3ccc(N4CCOCC4)nc3)nc3ccncc32)cc1` [Example 47, 4-{5-[3-(4-Chlorophenyl)-3H-imidazo[4,5-c]pyridin-2-yl]pyridin-2-yl}morpholine] yielded an IC50 of 1000 to 10000 nM. Turning to `Clc1ccc(-n2c(-c3cnc(N4CCOCC4)nc3)nc3ccncc32)cc1` [Example 51, 4-{5-[3-(4-Chlorophenyl)-3H-imidazo[4,5-c]pyridin-2-yl]pyrimidin-2-yl}morpholine], the IC50 lay in the range of 1000 to 10000 nM. With `Cc1ccc(-n2c(-c3ccc(N4CCOCC4)nc3)nc3ccncc32)c(F)c1` [Example 67, 4-{5-[3-(2-Fluoro-4-methylphenyl)-3H-imidazo[4,5-c]pyridin-2-yl]pyridin-2-yl}morpholine], the IC50 was 1000 to 10000 nM. Still for that read-out and setting: the value for `CS(=O)(=O)NC1CCN(c2ccc(-c3nc4ccncc4n3-c3ccc(Cl)cc3)cn2)CC1` [Example 88, N-(1-{5-[3-(4-Chlorophenyl)-3H-imidazo[4,5-c]pyridin-2-yl]pyridin-2-yl}piperidin-4-yl)methanesulfonamide] was 1000 to 10000 nM.
